IC50 data for 14 molecules are collected here from patent US10336702B2, “Pharmaceutically active compounds” (BERGENBIO ASA, priority 2015, dated 2019).

One may read the IC50 as the concentration at which inhibition is half-maximal.

The target in one experiment is T1, Akt1 (Homo sapiens, UniProt P31749).
T1 construct: unspecified tag, removed (detagged) (cleaved yes); purchased SignalChem and Proteros (Akt1); Merck Millipore (PDK1) 14-452 (PDK1); none given for Akt1
As to the kind of experiment: Akt activation assay (PDK1-mediated activation, LANCE Ultra crosstide TR-FRET), Akt1. The experiment is classed as biochemical. As to conditions: read-out: Biological Assay 1 IC50 (nM) Akt1. Put shortly:
(§1)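 Two-step cascade format: Akt1, Akt2 or Akt3 phosphorylates Ulight-crosstide (100 nM) only after activation by 5 nM PDK1 in presence of PtdIns(3,4,5)P3 vesicles and 100 μM ATP. Product quantified by Eu-antibody TR-FRET after 30 min reaction.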
In general terms: Time-resolved FRET reads energy transfer from a long-lived donor to a nearby acceptor.

In the next experiment the target is T2, Akt2 (Homo sapiens, UniProt P31751).
T2 construct: unspecified tag, removed (detagged) (cleaved yes); purchased SignalChem and Proteros (Akt2); Merck Millipore (PDK1) 14-452 (PDK1); none given for Akt2
T2 sequence (P31751 whole entry): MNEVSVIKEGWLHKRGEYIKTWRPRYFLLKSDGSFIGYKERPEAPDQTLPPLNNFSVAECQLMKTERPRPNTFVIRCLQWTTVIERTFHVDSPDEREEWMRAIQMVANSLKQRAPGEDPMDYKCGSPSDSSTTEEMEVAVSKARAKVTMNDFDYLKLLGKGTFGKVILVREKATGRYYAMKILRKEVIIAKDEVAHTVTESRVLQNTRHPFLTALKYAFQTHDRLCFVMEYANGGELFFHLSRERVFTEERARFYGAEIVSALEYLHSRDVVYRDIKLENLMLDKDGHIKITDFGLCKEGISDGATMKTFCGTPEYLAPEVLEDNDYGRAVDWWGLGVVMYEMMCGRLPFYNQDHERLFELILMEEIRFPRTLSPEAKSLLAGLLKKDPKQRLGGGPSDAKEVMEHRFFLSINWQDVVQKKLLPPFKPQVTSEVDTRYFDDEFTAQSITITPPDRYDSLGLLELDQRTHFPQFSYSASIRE
The experiment in a line: Akt activation assay (PDK1-mediated activation, LANCE Ultra crosstide TR-FRET), Akt2. The experiment is classed as biochemical. The settings on record: read-out: Biological Assay 1 IC50 (nM) Akt2. Put shortly: as §1

A further experiment addresses T3, Akt3 (Homo sapiens, UniProt Q9Y243).
T3 construct: unspecified tag, removed (detagged) (cleaved yes); purchased SignalChem and Proteros (Akt3); Merck Millipore (PDK1) 14-452 (PDK1); none given for Akt3
The experiment in a line: Akt activation assay (PDK1-mediated activation, LANCE Ultra crosstide TR-FRET), Akt3. The experiment is classed as biochemical. The settings on record: read-out: Biological Assay 1 IC50 (nM) Akt3. Put shortly: as §1

In a further experiment the target is T4, p-Akt1 in LNCaP cells (Homo sapiens, UniProt P31749).
T4 construct: SureFire assays to detect cellular p-Akt1, p-Akt2 and p-Akt3 levels in WM115 cells (Akt2/3) and LNCaP cells (Akt1); endogenous in cells; host or cells: LNCaP (ECACC 89110211)
T4 sequence (P31749 whole entry): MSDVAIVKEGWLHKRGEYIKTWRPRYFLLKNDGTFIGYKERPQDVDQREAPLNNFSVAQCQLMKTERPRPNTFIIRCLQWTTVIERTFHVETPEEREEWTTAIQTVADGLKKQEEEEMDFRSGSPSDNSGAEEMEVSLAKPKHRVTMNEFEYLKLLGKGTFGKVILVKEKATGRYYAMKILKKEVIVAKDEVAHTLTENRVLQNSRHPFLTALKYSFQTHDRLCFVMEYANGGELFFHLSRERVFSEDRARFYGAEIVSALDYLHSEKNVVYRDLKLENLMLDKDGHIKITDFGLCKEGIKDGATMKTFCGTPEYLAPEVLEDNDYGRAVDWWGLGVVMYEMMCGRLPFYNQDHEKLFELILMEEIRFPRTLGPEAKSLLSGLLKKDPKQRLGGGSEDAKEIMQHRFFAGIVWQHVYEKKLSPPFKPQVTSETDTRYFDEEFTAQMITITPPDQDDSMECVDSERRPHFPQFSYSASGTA
The experiment in a line: Phospho-Akt cellular SureFire assay, p-Akt1 in LNCaP cells. The settings on record: read-out: Biological Assay 2 IC50 (nM) Akt1 LNCaP. The experiment is classed as cell-based. Summed up:
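Phospho-Thr308 Akt1 detected by AlphaScreen SureFire proximity beads in LNCaP lysates after 15 min compound treatment at 37 °C in 0.1% FBS medium, unstimulated, 0.3% DMSO. Cells plated at 5×10^4/well overnight; IC50 from a 4-parameter equation.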

The next experiment addresses T5, p-Akt2 in WM115 cells (Homo sapiens, UniProt P31751).
T5 construct: SureFire assays to detect cellular p-Akt1, p-Akt2 and p-Akt3 levels in WM115 cells (Akt2/3) and LNCaP cells (Akt1); endogenous in cells; host or cells: WM115 (ECACC 91061232), insulin-stimulated
As to the kind of experiment: Phospho-Akt cellular SureFire assay, p-Akt2 in WM115 cells. The experiment is classed as cell-based. The settings on record: insulin stimulated, read-out: Biological Assay 2 IC50 (nM) Akt2 WM115. Summed up:
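Readout is a bead-proximity SureFire assay pairing a pThr308 Akt antibody with a total Akt2 antibody, lysate and beads incubated 2 h plus 2 h at room temperature in the dark. Before lysis, serum-starved WM115 cells received 100 nM insulin (10 min), then test compound (15 min, 0.3% DMSO); IC50 by 4-parameter equation.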

The target in the next experiment is T6, p-Akt3 in WM115 cells (Homo sapiens, UniProt Q9Y243).
T6 construct: SureFire assays to detect cellular p-Akt1, p-Akt2 and p-Akt3 levels in WM115 cells (Akt2/3) and LNCaP cells (Akt1); endogenous in cells; host or cells: WM115 (ECACC 91061232), insulin-stimulated
T6 sequence (Q9Y243 whole entry): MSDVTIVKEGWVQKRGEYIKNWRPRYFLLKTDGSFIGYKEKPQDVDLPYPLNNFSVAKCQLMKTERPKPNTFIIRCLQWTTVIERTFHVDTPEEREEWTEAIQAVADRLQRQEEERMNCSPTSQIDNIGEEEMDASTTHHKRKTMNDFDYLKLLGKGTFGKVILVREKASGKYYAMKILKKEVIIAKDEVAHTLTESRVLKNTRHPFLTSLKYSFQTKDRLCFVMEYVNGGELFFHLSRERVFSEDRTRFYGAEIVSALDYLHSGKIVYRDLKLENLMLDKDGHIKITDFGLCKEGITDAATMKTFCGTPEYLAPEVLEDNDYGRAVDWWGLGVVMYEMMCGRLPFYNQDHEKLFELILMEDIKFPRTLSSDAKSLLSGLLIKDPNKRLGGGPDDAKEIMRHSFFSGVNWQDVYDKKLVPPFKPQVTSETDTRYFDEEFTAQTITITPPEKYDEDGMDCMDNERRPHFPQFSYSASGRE
The experiment in a line: Phospho-Akt cellular SureFire assay, p-Akt3 in WM115 cells. The experiment is classed as cell-based. As to conditions: insulin stimulated, read-out: Biological Assay 2 IC50 (nM) Akt3 WM115. Put shortly:
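pThr308-Akt3 in lysates was quantified by bead-proximity SureFire detection, pairing a phospho-specific antibody with a total Akt3 antibody. Before lysis, WM115 cells in 0.1% FBS medium were treated for 15 min at 37 °C with compound (final DMSO 0.3%), following a 10 min stimulation with 100 nM insulin. IC50 was obtained by 4-parameter fitting.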

T1 sequence (P31749 whole entry): as the sequence (P31749 whole entry) above
T3 sequence (Q9Y243 whole entry): as the sequence (Q9Y243 whole entry) above
T5 sequence (P31751 whole entry): as the sequence (P31751 whole entry) above

As to `CC(=O)N(C)[C@H]1CC[C@H](CC(=O)Nc2cnc(-c3ccc(C(C)(C)N)cc3)c(-c3ccsc3)c2)CC1` [Example 6, N-(6-(4-(2-aminopropan-2-yl)phenyl)-5-(thiophen-3-yl)pyridin-3-yl)-2-(trans-4-(N-methylacetamido)cyclohexyl)acetamide], the IC50 was more than 30000 nM on Akt1; more than 24000 nM on Akt2; 720 nM on Akt3; more than 30000 nM at p-Akt1 in LNCaP cells; more than 21000 nM at p-Akt2 in WM115 cells; 340 nM on p-Akt3 in WM115 cells.
`CC(=O)N(C)[C@H]1CC[C@H](CC(=O)Nc2cnc(-c3ccc([C@H](C)N)cc3)c(-c3ccccc3)c2)CC1` [Example 7, N-(6-(4-((S)-1-aminoethyl)phenyl)-5-phenylpyridin-3-yl)-2-(trans-4-(N-methylacetamido)cyclohexyl)acetamide]: the 50% inhibitory concentration (IC50) is more than 30000 nM on Akt1; 9200 nM at Akt2; 350 nM at Akt3; more than 30000 nM on p-Akt1 in LNCaP cells; 10000 nM on p-Akt2 in WM115 cells; 300 nM at p-Akt3 in WM115 cells.
With `CC(=O)N(C)[C@H]1CC[C@H](CC(=O)Nc2cnc(-c3ccc(C(C)(C)N)cc3)c(-c3ccccc3F)c2)CC1` [Example 9, N-(6-(4-(2-aminopropan-2-yl)phenyl)-5-(2-fluorophenyl)pyridin-3-yl)-2-(trans-4-(N-methylacetamido)cyclohexyl)acetamide], the IC50 was more than 30000 nM at Akt1; 2500 nM at Akt2; 150 nM on Akt3; more than 30000 nM on p-Akt1 in LNCaP cells; 3500 nM on p-Akt2 in WM115 cells; 110 nM at p-Akt3 in WM115 cells.
For the molecule `CC(=O)N(C)[C@H]1CC[C@H](CC(=O)Nc2cnc(-c3ccc(C4(N)CCC4)cc3)c(-c3ccccc3)c2)CC1` [Example 10, N-(6-(4-(1-aminocyclobutyl)phenyl)-5-phenylpyridin-3-yl)-2-(trans-4-(N-methylacetamido)cyclohexyl)acetamide], the IC50 amounted to 6200 nM at Akt1; 260 nM at Akt2; 30 nM at Akt3; 6700 nM at p-Akt1 in LNCaP cells; 970 nM at p-Akt2 in WM115 cells; 39 nM at p-Akt3 in WM115 cells.
Turning to `CC(=O)N[C@H]1CC[C@H](CC(=O)Nc2cnc(-c3ccc([C@]4(N)C[C@H](F)C4)cc3)c(-c3ccccc3)c2)CC1` [Example 15, 2-(trans-4-acetamidocyclohexyl)-N-(6-(4-(trans-1-amino-3-fluorocyclobutyl)phenyl)-5-phenylpyridin-3-yl)acetamide], the IC50 was 7700 nM at Akt1; 580 nM on Akt2; 180 nM on Akt3; more than 22000 nM on p-Akt1 in LNCaP cells; 1100 nM on p-Akt2 in WM115 cells; 21 nM at p-Akt3 in WM115 cells.
As to `CC(=O)N(C)[C@H]1CC[C@H](CC(=O)Nc2cnc(-c3ccc(C4(N)CCC4)cc3)c(-c3ccccc3F)c2)CC1` [Example 16, N-(6-(4-(1-aminocyclobutyl)phenyl)-5-(2-fluorophenyl)pyridin-3-yl)-2-(trans-4-(N-methylacetamido)cyclohexyl)acetamide], the IC50 at Akt1 was determined as 7800 nM; on Akt2, 380 nM; at Akt3 it was 24 nM; at p-Akt1 in LNCaP cells, 11000 nM; at p-Akt2 in WM115 cells, 710 nM; at p-Akt3 in WM115 cells, 45 nM.
For `CN([C@H]1CC[C@H](CC(=O)Nc2cnc(-c3ccc(C4(N)CCC4)cc3)c(-c3ccsc3)c2)CC1)S(C)(=O)=O` [Example 17, N-(6-(4-(1-aminocyclobutyl)phenyl)-5-(thiophen-3-yl)pyridin-3-yl)-2-(trans-4-(N-methylmethylsulfonamido)cyclohexyl)acetamide], the IC50 is more than 26000 nM on Akt1; 1200 nM at Akt2; 48 nM at Akt3; 7100 nM at p-Akt1 in LNCaP cells; 1900 nM at p-Akt2 in WM115 cells; 140 nM at p-Akt3 in WM115 cells.
As to `CC(=O)N[C@H]1CC[C@H](CC(=O)Nc2cnc(-c3ccc(C4(N)CCC4)cc3)c(-c3ccsc3C)c2)CC1` [Example 18, 2-(trans-4-acetamidocyclohexyl)-N-(6-(4-(1-aminocyclobutyl)phenyl)-5-(2-methylthiophen-3-yl)pyridin-3-yl)acetamide], the IC50 on Akt1 was more than 30000 nM; on Akt2 it was 6900 nM; at Akt3, 1300 nM; on p-Akt1 in LNCaP cells, more than 30000 nM; at p-Akt2 in WM115 cells, 14000 nM; on p-Akt3 in WM115 cells it was 1100 nM.
For the molecule `CC(C)(N)c1ccc(-c2ncc(NC(=O)C[C@H]3CC[C@H](N4CCCC4=O)CC3)cc2-c2ccccc2)cc1` [Example 24, N-(6-(4-(2-aminopropan-2-yl)phenyl)-5-phenylpyridin-3-yl)-2-(trans-4-(2-oxopyrrolidin-1-yl)cyclohexyl)acetamide], the IC50 is more than 30000 nM on Akt1; 10000 nM at Akt2; 300 nM at Akt3; more than 18000 nM on p-Akt1 in LNCaP cells; 6700 nM at p-Akt2 in WM115 cells; 170 nM on p-Akt3 in WM115 cells.
Take `CC(C)(N)c1ccc(-c2ncc(NC(=O)C[C@H]3CC[C@H](NC(=O)C4CC4)CC3)cc2-c2ccsc2)cc1` [Example 26, N-(trans-4-(2-((6-(4-(2-aminopropan-2-yl)phenyl)-5-(thiophen-3-yl)pyridin-3-yl)amino)-2-oxoethyl)cyclohexyl)cyclopropanecarboxamide]: the IC50 is more than 30000 nM on Akt1; 12000 nM at Akt2; 1600 nM on Akt3; more than 16000 nM on p-Akt1 in LNCaP cells; 9000 nM at p-Akt2 in WM115 cells; 380 nM at p-Akt3 in WM115 cells.
`CN(C(=O)C1CC1)[C@H]1CC[C@H](CC(=O)Nc2cnc(-c3ccc(C(C)(C)N)cc3)c(-c3ccsc3)c2)CC1` [Example 27, N-(trans-4-(2-((6-(4-(2-aminopropan-2-yl)phenyl)-5-(thiophen-3-yl)pyridin-3-yl)amino)-2-oxoethyl)cyclohexyl)-N-methylcyclopropanecarboxamide]: the IC50 is more than 30000 nM on Akt1; 12000 nM on Akt2; 680 nM at Akt3; more than 30000 nM at p-Akt1 in LNCaP cells; 10000 nM at p-Akt2 in WM115 cells; 380 nM on p-Akt3 in WM115 cells.
With `CC(C)(N)c1ccc(-c2ncc(NC(=O)C[C@H]3CC[C@H](NC(=O)CC4CC4)CC3)cc2-c2ccccc2)cc1` [Example 29, N-(6-(4-(2-aminopropan-2-yl)phenyl)-5-phenylpyridin-3-yl)-2-(trans-4-(2-cyclopropylacetamido)cyclohexyl)acetamide], the IC50 on Akt1 is more than 33000 nM; at Akt2, 2200 nM; on Akt3, 53 nM; at p-Akt1 in LNCaP cells it was more than 13000 nM; at p-Akt2 in WM115 cells it was 8400 nM; at p-Akt3 in WM115 cells, 170 nM.
For the molecule `CC(=O)N(C)[C@H]1CC[C@H](CC(=O)Nc2cc(-c3ccccc3)c(-c3ccc(C(C)(C)N)cc3)nn2)CC1` [Example 30, N-(6-(4-(2-aminopropan-2-yl)phenyl)-5-phenylpyridazin-3-yl)-2-(trans-4-(N-methylacetamido)cyclohexyl)acetamide], the IC50 on Akt1 was more than 30000 nM; on Akt2, 12000 nM; at Akt3, 470 nM; at p-Akt1 in LNCaP cells it was more than 30000 nM; at p-Akt2 in WM115 cells, 6800 nM; at p-Akt3 in WM115 cells, 72 nM.
As for `CC(=O)N(C)[C@H]1CC[C@H](CC(=O)Nc2cnc(-c3ccc(C(C)(C)N)c(F)c3)c(-c3ccccc3)c2)CC1` [Example 31, N-(6-(4-(2-aminopropan-2-yl)-3-fluorophenyl)-5-phenylpyridin-3-yl)-2-(trans-4-(N-methylacetamido)cyclohexyl)acetamide], the IC50 at Akt1 is more than 30000 nM; on Akt2 it was more than 15000 nM; on Akt3, 1700 nM; on p-Akt1 in LNCaP cells, more than 30000 nM; at p-Akt2 in WM115 cells, more than 30000 nM; on p-Akt3 in WM115 cells, 440 nM.
